Laboratory results: patent US9902702B2, “Spirocycloheptanes as inhibitors of rock” (BRISTOL-MYERS SQUIBB COMPANY, priority 2014, dated 2018)

molecular target: ROCK2 (Homo sapiens, UniProt O75116); assay: ROCK assay: phosphorylation of FITC peptide substrate, LABCHIP 3000 mobility shift; assay type: biochemical; conditions: 5 μM ATP, 1.5 μM peptide substrate; read-out: ROCK2 Activity (ROCK IC50 range)
Method in brief: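 IC50 values come from curve-fitting percent kinase inhibition across a compound dilution series. The reaction is started with Rho kinase variant in HEPES pH 7.5 buffer with MgCl2, Brij-35 and DTT, with 5 μM ATP, 1.5 μM FITC-labelled peptide and under 2% DMSO. After EDTA quench, product and substrate are separated by microfluidic mobility shift.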

ROCK2, sequence (O75116 whole entry, species assumed): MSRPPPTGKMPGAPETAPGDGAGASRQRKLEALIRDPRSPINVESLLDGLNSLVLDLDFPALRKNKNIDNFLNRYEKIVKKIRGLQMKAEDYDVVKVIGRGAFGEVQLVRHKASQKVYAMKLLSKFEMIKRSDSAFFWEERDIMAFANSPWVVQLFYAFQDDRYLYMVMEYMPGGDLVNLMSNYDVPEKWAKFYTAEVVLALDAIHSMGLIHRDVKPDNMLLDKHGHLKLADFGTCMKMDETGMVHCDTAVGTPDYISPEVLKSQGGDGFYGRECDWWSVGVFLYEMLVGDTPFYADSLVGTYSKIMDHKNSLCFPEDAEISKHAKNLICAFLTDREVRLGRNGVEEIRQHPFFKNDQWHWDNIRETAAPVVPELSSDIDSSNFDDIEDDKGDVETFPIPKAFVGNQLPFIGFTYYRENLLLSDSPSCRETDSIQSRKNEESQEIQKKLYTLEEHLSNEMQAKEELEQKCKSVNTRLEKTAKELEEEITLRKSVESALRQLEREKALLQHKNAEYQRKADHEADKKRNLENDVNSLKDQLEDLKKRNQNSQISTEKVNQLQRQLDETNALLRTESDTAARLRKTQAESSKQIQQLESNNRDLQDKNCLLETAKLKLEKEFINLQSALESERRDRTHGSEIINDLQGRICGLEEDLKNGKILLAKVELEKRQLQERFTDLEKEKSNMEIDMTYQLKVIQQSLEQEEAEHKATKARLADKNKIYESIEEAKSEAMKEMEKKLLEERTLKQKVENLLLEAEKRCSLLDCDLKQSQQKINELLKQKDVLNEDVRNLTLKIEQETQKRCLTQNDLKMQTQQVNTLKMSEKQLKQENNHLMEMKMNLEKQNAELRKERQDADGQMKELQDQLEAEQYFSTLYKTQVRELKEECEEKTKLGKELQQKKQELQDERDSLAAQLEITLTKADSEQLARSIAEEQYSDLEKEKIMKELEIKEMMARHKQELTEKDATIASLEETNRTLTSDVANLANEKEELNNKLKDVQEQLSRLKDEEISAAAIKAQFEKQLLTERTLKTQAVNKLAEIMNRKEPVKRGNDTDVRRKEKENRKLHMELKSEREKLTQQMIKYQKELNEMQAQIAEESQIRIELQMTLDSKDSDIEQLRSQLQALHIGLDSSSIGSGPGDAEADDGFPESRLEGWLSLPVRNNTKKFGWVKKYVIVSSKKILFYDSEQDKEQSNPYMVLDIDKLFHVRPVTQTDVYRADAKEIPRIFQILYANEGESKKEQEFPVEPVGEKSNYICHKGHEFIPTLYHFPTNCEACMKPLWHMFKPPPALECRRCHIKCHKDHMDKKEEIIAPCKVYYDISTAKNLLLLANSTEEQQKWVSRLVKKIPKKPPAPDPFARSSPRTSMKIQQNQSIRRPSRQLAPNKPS

IC50 [nM]	SMILES
5.1 to 15	Cc1sc(N2CCC(C#N)C2)nc1C(=O)NC1CC2(C1)CC(c1n[nH]c(=O)c3ccccc13)C2 [Example 56, 2-((R)-3-cyanopyrrolidin-1-yl)-5-methyl-N-((aR)-6-(4-oxo-3,4-dihydrophthalazin-1-yl)spiro[3.3]heptan-2-yl)thiazole-4-carboxamide]
2.01 to 5	CN1CCN(Cc2ccc3c(C(=O)NC4CC5(C4)CC(c4n[nH]c(=O)c6ccccc46)C5)cnn3c2)CC1 [Example 201, 6-((4-methylpiperazin-1-yl)methyl)-N-((aR)-6-(4-oxo-3,4-dihydrophthalazin-1-yl)spiro[3.3]heptan-2-yl)pyrazolo[1,5-a]pyridine-3-carboxamide]
2.01 to 5	O=C(NC1CC2(C1)CC(c1n[nH]c(=O)c3ccccc13)C2)c1cnn2cc(O)ccc12 (stereo not drawn) [Example 137, 6-hydroxy-N-((αR)-6-(4-oxo-3,4-dihydrophthalazin-1-yl)spiro[3.3]heptan-2-yl)pyrazolo[1,5-α]pyridine-3-carboxamide]
2.01 to 5	[H][C@]1(c2n[nH]c(=O)c3ccccc32)C[C@]2(C[C@@H](NC(=O)c3cnc4cc(-c5cn(C(C)C)nc5C(F)(F)F)ccn34)C2)C1 (stereo partly drawn) [Example 444, 7-(1-isopropyl-3-(trifluoromethyl)-1H-pyrazol-4-yl)-N-((aR)-6-(4-oxo-3,4-dihydrophthalazin-1-yl)spiro[3.3]heptan-2-yl)imidazo[1,2-a]pyridine-3-carboxamide]
2.01 to 5	N#CCCc1ccc2c(C(=O)NC3CC4(C3)CC(c3n[nH]c(=O)c5ccccc35)C4)cnn2c1 [Example 207, 6-(2-cyanoethyl)-N-((aR)-6-(4-oxo-3,4-dihydrophthalazin-1-yl)spiro[3.3]heptan-2-yl)pyrazolo[1,5-a]pyridine-3-carboxamide]
0.2 to 2	O=C(NC1CC2(C1)CC(c1n[nH]c(=O)c3ccccc13)C2)c1cnn2cc(N3CCCC3)ccc12 [Example 87, N-((aR)-6-(4-oxo-3,4-dihydrophthalazin-1-yl)spiro[3.3]heptan-2-yl)-6-(pyrrolidin-1-yl)pyrazolo[1,5-a]pyridine-3-carboxamide]
0.2 to 2	[H][C@]1(c2n[nH]c(=O)c3ccccc32)C[C@]2(C[C@@H](NC(=O)c3cnc4cc(OC)ccn34)C2)C1 (stereo partly drawn) [Example 385, 7-methoxy-N-((aR)-6-(4-oxo-3,4-dihydrophthalazin-1-yl)spiro[3.3]heptan-2-yl)imidazo[1,2-a]pyridine-3-carboxamide]
2.01 to 5	Cc1c(OCC(C)(C)O)ccc2c(C(=O)NC3CC4(C3)CC(c3n[nH]c(=O)c5ccccc35)C4)cnn12 [Example 112, 6-(2-hydroxy-2-methylpropoxy)-7-methyl-N-((aR)-6-(4-oxo-3,4-dihydrophthalazin-1-yl)spiro[3.3]heptan-2-yl)pyrazolo[1,5-a]pyridine-3-carboxamide]
0.2 to 2	CC(C)n1cc(-c2ccc3c(C(=O)NC4CC5(C4)CC(c4n[nH]c(=O)c6ccccc46)C5)cnn3c2)cn1 [Example 220, 6-(1-isopropyl-1H-pyrazol-4-yl)-N-((aR)-6-(4-oxo-3,4-dihydrophthalazin-1-yl)spiro[3.3]heptan-2-yl)pyrazolo[1,5-a]pyridine-3-carboxamide]
2.01 to 5	[H][C@]1(c2n[nH]c(=O)c3ccccc32)C[C@]2(C[C@@H](NC(=O)c3cnc4cc(F)ccn34)C2)C1 (stereo partly drawn) [Example 387, 7-fluoro-N-((aR)-6-(4-oxo-3,4-dihydrophthalazin-1-yl)spiro[3.3]heptan-2-yl)imidazo[1,2-a]pyridine-3-carboxamide]
5.1 to 15	[H][C@]1(c2n[nH]c(=O)c3ccccc32)C[C@]2(C[C@@H](NC(=O)c3cc4ccc(Cl)cc4s3)C2)C1 (stereo partly drawn) [Example 313, 6-chloro-N-((aR)-6-(4-oxo-3,4-dihydrophthalazin-1-yl)spiro[3.3]heptan-2-yl)benzo[b] thiophene-2-carboxamide]
5.1 to 15	[H][C@]1(c2n[nH]c(=O)c3ccccc32)C[C@]2(C[C@@H](NC(=O)c3cc4c(OC)ccc(OC)c4[nH]3)C2)C1 (stereo partly drawn) [Example 334, 4,7-dimethoxy-N-((aR)-6-(4-oxo-3,4-dihydrophthalazin-1-yl)spiro[3.3]heptan-2-yl)-1H-indole-2-carboxamide]
5.1 to 15	Cn1cc(-c2ccc3c(c2)CN(C(=O)NC2CC4(C2)CC(c2n[nH]c(=O)c5ccccc25)C4)C3)c(C(F)(F)F)n1 [Example 248, 5-(1-methyl-3-(trifluoromethyl)-1H-pyrazol-4-yl)-N-((aR)-6-(4-oxo-3,4-dihydrophthalazin-1-yl)spiro[3.3]heptan-2-yl)isoindoline-2-carboxamide]
15.1 to 100	O=C(Nc1ccc(-c2cnn(C3CCOCC3)c2)cc1)NC1CC2(C1)CC(c1n[nH]c(=O)c3ccccc13)C2 [Example 231, 1-((aR)-6-(4-oxo-3,4-dihydrophthalazin-1-yl)spiro[3.3]heptan-2-yl)-3-(4-(1-(tetrahydro-2H-pyran-4-yl)-1H-pyrazol-4-yl)phenyl)urea]
15.1 to 100	[H][C@]1(c2n[nH]c(=O)c3ccccc32)C[C@@]2(C[C@H](NC(=O)c3cc4cc(OC)ccc4n3C)C2)C1 (stereo partly drawn) [Example 293, 5-methoxy-1-methyl-N-((aR)-6-(4-oxo-3,4-dihydrophthalazin-1-yl)spiro[3.3]heptan-2-yl)-1H-indole-2-carboxamide]
2.01 to 5	O=C(NC1CC2(C1)CC(c1n[nH]c(=O)c3ccccc13)C2)c1cnn2ccccc12 [Example 74, N-((aR)-6-(4-oxo-3,4-dihydrophthalazin-1-yl)spiro[3.3]heptan-2-yl)pyrazolo[1,5-a]pyridine-3-carboxamide]
0.2 to 2	[H][C@]1(c2n[nH]c(=O)c3ccccc32)C[C@]2(C[C@@H](NC(=O)c3cnc4cc(N(C)CCOC)ccn34)C2)C1 (stereo partly drawn) [Example 397, 7-((2-methoxy-ethyl)(methyl)amino)-N-((aR)-6-(4-oxo-3,4-dihydrophthalazin-1-yl)spiro[3.3]heptan-2-yl)imidazo[1,2-a]pyridine-3-carboxamide]
2.01 to 5	[H][C@]1(c2n[nH]c(=O)c3ccccc32)C[C@]2(C[C@@H](NC(=O)c3cc4cccc(Cl)c4n3C)C2)C1 (stereo partly drawn) [Example 301, 7-chloro-1-methyl-N-((aR)-6-(4-oxo-3,4-dihydrophthalazin-1-yl)spiro[3.3]heptan-2-yl)-1H-indole-2-carboxamide]
2.01 to 5	CC(C)(O)Cn1nc(C(=O)NC2CC3(C2)CC(c2n[nH]c(=O)c4ccccc24)C3)c2ccc(F)cc21 [Example 31, 6-fluoro-1-(2-hydroxy-2-methylpropyl)-N-[(aR)-6-(4-oxo-3,4-dihydrophthalazin-1-yl)spiro[3.3]heptan-2-yl]-1H-indazole-3-carboxamide]
5.1 to 15	[H][C@]1(c2n[nH]c(=O)c3ccccc32)C[C@]2(C[C@@H](NC(=O)c3cnc4cc(C#N)ccn34)C2)C1 (stereo partly drawn) [Example 379, 7-cyano-N-((aR)-6-(4-oxo-3,4-dihydrophthalazin-1-yl)spiro[3.3]heptan-2-yl)imidazo[1,2-a]pyridine-3-carboxamide]

SMILES	IC50 [nM]
O=C(NC1CC2(C1)CC(c1n[nH]c(=O)c3ccccc13)C2)c1cnc2[nH]cnc2c1 [Example 310, N-((aR)-6-(4-oxo-3,4-dihydrophthalazin-1-yl)spiro[3.3]heptan-2-yl)-3H-imidazo[4,5-b]pyridine-6-carboxamide]	15.1 to 100
